{
  "source": "patent US10767186B2",
  "about": "“Organic compounds” (Novartis AG, priority 2007, dated 2020)",
  "key": {"[1]": {"molecular_target": "FRα (FR alpha) and FRβ (FR beta)", "conditions": "cited from earlier work; for Kd: FRα and FRβ"}, "RFC-deficient C15 cells": {"system": "RFC-deficient C15 cells", "experiment": "Antibody production of test vector clones at low folic acid (ELISA)", "assay_type": "cell-based, Chinese hamster", "description": "The cells are lacking RFC transporter activity, as disclosed elsewhere (Assaraf, Y. G. and Schimke, R. T. (1987) Proc. Natl. Acad. Sci. USA 84, 7154-7158; Rothem, L., et al., Mol. Pharmacol. 68: 616-624).\nRFC-deficient C15 cells are transfected with the test vector by electroporation. […] Cells are diluted to a final density of 5 cells/ml and seeded at 100 μl/well in 96-well plates (i.e. 0.5 cells/well). […] The co-selection utilizing the folate system of the present invention together with an additional selection system (i.e. neo/G418) is applied to provide optimal performance of the selection process. […] This is corroborated by further analysis of antibody expression in the various clones.\nThe analysis of antibody production is performed in principle as outlined in Example 1.4 above. The concentration of the secreted antibody is monitored using an ELISA assay as follows: Maxisorp microplates are coated with an anti-human IgG. Following blocking with a buffer containing bovine serum albumin (BSA) and several washes, multiple dilutions of the secreted antibody samples are added. Then, a peroxidase-conjugated second antibody consisting of goat anti-human IgG-peroxidase is added. Finally, a colorimetric peroxidase substrate is added following which the resultant dye concentration is determined in each well spectrophotometrically and then compared to standard concentrations of known IgG concentrations."}, "[2]": {"molecular_target": "T1, reduced folate carrier (RFC) (Homo sapiens, UniProt P41440)", "T1 sequence (P41440 1-591)": "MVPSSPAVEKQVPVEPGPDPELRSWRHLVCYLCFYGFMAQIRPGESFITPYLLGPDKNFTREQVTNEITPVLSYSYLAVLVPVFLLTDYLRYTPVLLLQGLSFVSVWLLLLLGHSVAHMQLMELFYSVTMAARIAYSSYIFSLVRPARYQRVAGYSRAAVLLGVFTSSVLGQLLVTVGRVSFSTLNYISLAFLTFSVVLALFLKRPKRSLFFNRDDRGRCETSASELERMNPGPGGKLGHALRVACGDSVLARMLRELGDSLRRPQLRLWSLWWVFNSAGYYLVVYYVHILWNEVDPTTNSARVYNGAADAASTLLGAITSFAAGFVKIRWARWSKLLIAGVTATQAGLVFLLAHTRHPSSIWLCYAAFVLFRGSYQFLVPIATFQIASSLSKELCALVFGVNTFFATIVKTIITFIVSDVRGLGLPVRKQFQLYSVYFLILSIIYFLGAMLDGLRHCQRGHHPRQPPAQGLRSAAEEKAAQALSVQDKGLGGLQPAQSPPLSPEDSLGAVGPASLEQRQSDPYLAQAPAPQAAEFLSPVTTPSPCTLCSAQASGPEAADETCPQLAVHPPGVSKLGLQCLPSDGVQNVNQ", "conditions": "cited from earlier work"}, "CHO-K1 cell line": {"system": "CHO-K1 cell line", "experiment": "Folic acid starvation experiment, cell survival", "assay_type": "cell-based, Chinese hamster", "description": "Cells are cultivated in such medium and cell viability is analyzed to quantify the percentage of surviving cells."}},
  "data": [
    {"smiles": "C#CCN(c1ccc(C(=O)N[C@@H](CCC(=O)N[C@H](CCC(=O)O)C(=O)O)C(=O)O)cc1)[C@H]1CCc2cc3nc(CO)[nH]c(=O)c3cc21", "note": "[BGC945]", "values": [
      {"measurement": "Kd", "setting": "[1]", "result": 1, "unit": "nM"}
    ]},
    {"smiles": "Nc1nc2c(c(=O)[nH]1)CC(CCc1ccc(C(=O)N[C@@H](CCC(=O)O)C(=O)O)cc1)CN2", "note": "(some centres unmarked) [DDATHF, 5,10-dideazatetrahydrofolic acid]", "values": [
      {"measurement": "Ki", "setting": "[1]; using [3H]folic acid as a substrate", "result": "0.4 to 1.3", "unit": "nM"}
    ]},
    {"smiles": "CN(Cc1cnc2nc(N)nc(N)c2n1)c1ccc(C(=O)N[C@@H](CCC(=O)O)C(=O)O)cc1", "note": "[MTX, 4-amino-10-methylfolic acid]", "values": [
      {"measurement": "Kd", "setting": "[1]", "result": "> 100", "unit": "nM"}
    ]},
    {"smiles": "Nc1nc2ncc(CNc3ccc(C(=O)N[C@@H](CCC(=O)O)C(=O)O)cc3)nc2c(=O)[nH]1", "note": "[folic acid]", "values": [
      {"measurement": "CmAb: concentration of the secreted antibody in the medium", "setting": "RFC-deficient C15 cells; folic acid 60 pM in the medium", "result": "216 ± 30", "unit": "µg/L"},
      {"measurement": "CmAb: concentration of the secreted antibody in the medium", "setting": "RFC-deficient C15 cells; folic acid 600 pM in the medium", "result": "138 ± 15", "unit": "µg/L"},
      {"measurement": "CmAb: concentration of the secreted antibody in the medium", "setting": "RFC-deficient C15 cells; folic acid 1200 pM in the medium", "result": "19 ± 8", "unit": "µg/L"},
      {"measurement": "Kt (transport affinity)", "setting": "[2]", "result": "200 to 400", "unit": "µM"},
      {"measurement": "Precentage of Survival", "setting": "CHO-K1 cell line; FA concentration 0.1 nM", "result": 2.08},
      {"measurement": "Precentage of Survival", "setting": "CHO-K1 cell line; FA concentration 1 nM", "result": 2.45},
      {"measurement": "Precentage of Survival", "setting": "CHO-K1 cell line; FA concentration 3 nM", "result": 2},
      {"measurement": "Precentage of Survival", "setting": "CHO-K1 cell line; FA concentration 10 nM", "result": 2.7},
      {"measurement": "Precentage of Survival", "setting": "CHO-K1 cell line; FA concentration 30 nM", "result": 6.8},
      {"measurement": "Precentage of Survival", "setting": "CHO-K1 cell line; FA concentration 100 nM", "result": 55.5},
      {"measurement": "Precentage of Survival", "setting": "CHO-K1 cell line; FA concentration 300 nM", "result": 88.6},
      {"measurement": "Precentage of Survival", "setting": "CHO-K1 cell line; FA concentration 1000 nM", "result": 100.8},
      {"measurement": "Precentage of Survival", "setting": "CHO-K1 cell line; FA concentration 2300 nM", "result": 100}
    ]},
    {"smiles": "Nc1nc2c(c(=O)[nH]1)N(C=O)C(CNc1ccc(C(=O)N[C@@H](CCC(=O)O)C(=O)O)cc1)CN2", "note": "(some centres unmarked) [leucovorin, 5-formyl-THF]", "values": [
      {"measurement": "Kt (transport affinity)", "setting": "[2]", "result": 1, "unit": "µM"}
    ]}
  ]
}
